Measured values reported in patent US5643784A, “Indan derivatives” (H, Lundbeck A/S, priority 1990, dated 1997).

How the values were obtained:
5-HT2 receptors = target: T1, 5-HT2 receptors (Rattus norvegicus, UniProt P14842); assay: Inhibition of 3H-ketanserin binding to 5-HT2 receptors in rat cortex in vitro; conditions: 3H-Ketanserin 0.5 nM, rat cortex, 37° C., 30 min; read-out: Receptor Binding; IC50 5-HT2 3H-Ket
T1 construct: cortical tissue is dissected and weighed; from tissue; host or cells: cortex of male Wistar rats, crude membranes
Procedure: Method in Hyttel, Pharmacology & Toxicology, 61, 126-129, 1987.
Male Wistar (Mol:Wist) rats (125-250 g) are sacrificed and cortical tissue is dissected and weighed. The tissue is homogenized (Ultra Turrax, 10 sec.) in 10 ml of ice-cold 50 mM tris buffer pH 7.7 (at 25° C.). The centrifuge glassware used in this step has been rinsed by sonication for 10 min. in ethanol. The homogenate is centrifuged twice at 20,000 g for 10 min. at 4° C. with rehomogenization of the pellet in 10 ml ice-cold buffer. The final pellet is homogenized in 500 vol (w/v) ice-cold buffer.
Incubation tubes kept on ice in triplicate receive 100 μl of drug solution in water (or water for total binding) and 2000 μl of tissue suspension (final tissue content corresponds to 4 mg original tissue). […] After incubation for 30 min. the samples are filtered under vacuum (0-50 mBar) through Whatman GF/F filters (25 mm). The tubes are rinsed with 5 ml ice-cold buffer which are then poured on the filters. Thereafter, the filters are washed with 2×5 ml of buffer. The filters are placed in counting vials and 4 ml of appropriate scintillation fluid (e.g. Picofluor™15) are added. After shaking for 1 h and storage 2 hrs in the dark the content of radioactivity is determined by liquid scintillation counting. Specific binding is obtained by subtracting the nonspecific binding in the presence of 1 μM mianserin.
(§1) For determination of the inhibition of binding five concentrations of drugs covering 3 decades are used.
The IC50 value is determined as the concentration at which the binding is 50% of the total binding in control samples minus the nonspecific binding in the presence of 1 μM mianserin.

α1 adrenoceptors = assay: Inhibition of 3H-prazosin binding to α1 adrenoceptors in rat brain in vitro; conditions: 3H-Prazosin 0.25 nM, rat brain, 25° C., 20 min; read-out: Receptor Binding; IC50 α1 3H-Praz
Procedure: INHIBITION OF ^3 H-PRAZOSIN BINDING TO α1 ADRENOCEPTORS IN RAT BRAIN IN VITRO
Method and results in Hyttel & Larsen, J. Neurochem, 44, 1615-1622, 1985; Skarsfeldt & Hyttel, Eur. J. Pharmacol. 125, 323-340, 1986.
Male Wistar (Mol:Wist) rats (125-200 g) are sacrificed and brain tissue is dissected and weighed. The tissue is homogenized (Ultra Turrax, 10 sec.) in 10 ml of ice-cold […] Tris buffer pH 7,7 (at 25° C.). The homogenate is centrifuged twice at 20,000 g for 10 min. at 4° C. with rehomogenization of the pellet in 10 ml ice-cold buffer. The final pellet is homogenized in 400 vol (w/v) ice-cold buffer.
Incubation tubes kept on ice in triplicate receive 100 μl of drug solution in water (or water for total binding) and 4000μl of tissue suspension (final tissue content corresponds to 10 mg original tissue). The binding experiment is initiated by addition of 100 μl of ^3 H-Prazosin (final concentration 0.25 nM) and by placing the tubes in a 25° C. water bath. After incubation for 20 min. the samples are filtered under vacuum (0-50 mBar) through Whatman GF/F filters (25 mm). The tubes are rinsed with 5 ml ice-cold buffer which then are poured on the filters. Thereafter, the filters are washed with 5 ml of buffer. The filters are placed in counting vials and 4 ml of appropriate scintillation fluid (e.g. Picofluor™15) are added. After shaking for 1 h and storage 2 hrs in the dark the content of radioactivity is determined by liquid scintillation counting. Specific binding is obtained by subtracting the nonspecific binding in the presence of 1 μM of Prazosin.
as §1
The measured cpm are plotted against drug concentration on semilogarithmic paper and the best fitting S-shaped curve is drawn. The IC50 value is determined as the concentration at which the binding is 50% of the total binding in control samples minus the nonspecific binding in the presence of 1 μM of Prazosin.
^3 H-Prazosin=[furoyl-5-^3 H]-Prazosin from New England Nuclear, specific activity approximately 20 Ci/mmol.

T1 sequence (P14842 whole entry): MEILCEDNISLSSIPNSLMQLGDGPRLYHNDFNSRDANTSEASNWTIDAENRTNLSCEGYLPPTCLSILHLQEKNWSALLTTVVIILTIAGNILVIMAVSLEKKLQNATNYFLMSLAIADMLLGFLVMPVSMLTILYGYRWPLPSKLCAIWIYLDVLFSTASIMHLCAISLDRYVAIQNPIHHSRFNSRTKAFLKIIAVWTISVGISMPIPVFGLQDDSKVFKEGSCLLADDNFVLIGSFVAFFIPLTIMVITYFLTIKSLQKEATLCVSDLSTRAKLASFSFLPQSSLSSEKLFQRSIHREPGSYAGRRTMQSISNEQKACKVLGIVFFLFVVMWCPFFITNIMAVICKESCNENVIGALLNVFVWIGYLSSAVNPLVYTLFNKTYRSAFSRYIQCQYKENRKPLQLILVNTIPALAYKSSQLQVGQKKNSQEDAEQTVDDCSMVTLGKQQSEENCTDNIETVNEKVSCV

Compound | IC50 (5-HT2 receptors) [µM] | IC50 (α1 adrenoceptors) [µM]
Fc1ccc([C@@H]2C[C@@H](N3CCN(CCN4CCCNC4=S)CC3)c3ccc(F)cc32)cc1 (single isomer, unassigned) [(-)-30, (-)-Trans-1-[2-[4-[5-fluoro-3-(4-fluorophenyl)-2,3-dihydro-1H-inden-1-yl]piperazin-1-yl]ethyl]-tetrahydro-2(1H)-pyrimidinethione] | 0.042 | 
Cc1ccc2c(c1)[C@@H](c1ccc(F)cc1)C[C@@H]2N1CCN(CCN2CCN(C(C)C)C2=O)CC1 (relative stereo) [Compound 12, Trans-1-[2-[4-[3-(4-fluorophenyl)-5-methyl-2,3-dihydro-1-H-inden-1-yl]piperazin-1-yl]ethyl]-3-isopropyl-2-imidazolidinone] | 0.003 | 0.12
OCCN1CCN([C@H]2C[C@H](c3ccc(F)cc3)c3cc(F)ccc32)CC1 (single isomer, unassigned) [(+)-2] | 0.012 | 0.072
O=c1[nH]c2ccccc2n1CCN1CCN([C@@H]2C[C@@H](c3ccc(F)cc3)c3cc(Cl)ccc32)CC1 (relative stereo) [Compound 25, Trans-1-[2-[4-[5-chloro-3-(4-fluorophenyl)-2,3-dihydro-1H-inden-1-yl]piperazin-1-yl]ethyl]-benzimidazolin-2-one] | 0.0056 | 
Fc1ccc([C@@H]2C[C@@H](N3CCN(CCN4CCNC4=S)CC3)c3ccc(F)cc32)cc1 (relative stereo) [Compound 29, Trans-1-[2-[4-[5-fluoro-3-(4-fluorophenyl)-2,3-dihydro-1H-inden-1-yl]piperazin-1-yl]-ethyl]-2-imidazolidinthione] | 0.0015 | 0.11
Fc1ccc([C@@H]2C[C@@H](N3CCN(CCN4CCCNC4=S)CC3)c3ccc(Cl)cc32)cc1 (relative stereo) [Compound 32, Trans-1-[2-[4-[5-chloro-3-(4-fluorophenyl)-2,3-dihydro-1H-inden-1-yl]piperazin-1-yl]ethyl]-tetrahydro-2(1H)-pyrimidinethione] | 0.0015 | 0.17
OCCN1CCN([C@H]2C[C@H](c3ccc(F)cc3)c3cc(Cl)ccc32)CC1 (single isomer, unassigned) [(-)-3] | 0.011 | 0.21
Fc1ccc([C@@H]2C[C@@H](N3CCN(CCN4CCCNC4=S)CC3)c3ccc(Cl)cc32)cc1 (single isomer, unassigned) [(+)-32, (+)-Trans-1-[2-[4-[5-chloro-3-(4-fluorophenyl)-2,3-dihydro-1H-inden-1-yl]piperazin-1-yl]ethyl]-tetrahydro-2(1H)-pyrimidinethione] | 0.021 | 0.35
O=C1NCCN1CCCN1CCN([C@H]2C[C@H](c3ccc(F)cc3)c3cc(Cl)ccc32)CC1 (relative stereo) [Compound 16, Trans-1-[3-[4-[5-chloro-3-(4-fluorophenyl)-2,3-dihydro-1-H-inden-1-yl]piperazin-1-yl]propan-1-yl]-2-imidazolidinone] | 0.01 | 0.073
OCCN1CCN([C@H]2C[C@H](c3ccc(F)cc3)c3cc(Cl)ccc32)CC1 (single isomer, unassigned) [(+)-3] | 0.23 | 2.5
Fc1ccc([C@@H]2C[C@@H](N3CCN(CCN4CCCNC4=S)CC3)c3ccc(F)cc32)cc1 (relative stereo) [Compound 30, Trans-1-[2-[4-[5-fluoro-3-(4-fluorophenyl)-2,3-dihydro-1H-inden-1-yl]piperazin-1-yl]ethyl]-tetrahydro-2(1H)-pyrimidinethione] | 0.0017 | 0.11
OCCN1CCN([C@H]2C[C@H](c3ccc(F)cc3)c3cc(F)ccc32)CC1 (single isomer, unassigned) [(-)-2] | 0.5 | 1.1
O=C1NCCCN1CCN1CCN([C@@H]2C[C@@H](c3ccc(F)cc3)c3cc(Cl)ccc32)CC1 (single isomer, unassigned) [(+)-34, (+)-Trans-1-[2-[4-[5-chloro-3-(4-fluorophenyl)-2,3-dihydro-1H-inden-1-yl]piperazin-1-yl]ethyl]-tetrahydro-2(1H)-pyrimidinone] | 0.12 | 
CC(C)N1CCN(CCN2CCN([C@H]3C[C@H](c4ccc(F)cc4)c4cc(Cl)ccc43)CC2)C1=O (single isomer, unassigned) [(+)-11] | 0.075 | 0.34
O=C1CCCN1CCN1CCN([C@H]2C[C@H](c3ccc(F)cc3)c3cc(Cl)ccc32)CC1 (relative stereo) [Compound 15, Trans-1-[2-[4-[5-chloro-3-(4-fluorophenyl)-2-3-dihydro-1-H-inden-1-yl]piperazin-1-yl]ethyl]-2-pyrrolidinone] | 0.01 | 0.37
O=C1NCCCN1CCN1CCN([C@@H]2C[C@@H](c3ccc(F)cc3)c3cc(Cl)ccc32)CC1 (single isomer, unassigned) [(-)-34, (-)-Trans-1-[2-[4-[5-chloro-3-(4-fluorophenyl)-2,3-dihydro-1H-inden-1-yl]piperazin-1-yl]ethyl]-tetrahydro-2(1H)-pyrimidinone] | 0.0013 | 0.062
CC(C)N1CCN(CCN2CCN([C@@H]3C[C@@H](c4ccc(F)cc4)c4cc(Cl)ccc43)CC2)C1=O (single isomer, unassigned) [(-)-11, (-)-Trans-1-[2-[4-[5-chloro-3-(4-fluorophenyl)-2,3-dihydro-1H-inden-1-yl]piperazin-1-yl]-ethyl]-3-isopropyl-2-imidazolidinone] | 0.0011 | 0.21
O=C1NCCN1CCN1CCN([C@@H]2C[C@@H](c3ccc(F)cc3)c3cc(Cl)ccc32)CC1 (relative stereo) [Compound 4, Trans-1-[2-[4-[5-chloro-3-(4-fluorophenyl)-2,3-dihydro-1H-inden-1-yl]piperazine-1-yl]ethyl]-2-imidazolidinone] | 0.0029 | 0.2
OCCN1CCN([C@H]2C[C@H](c3ccc(F)cc3)c3cc(F)ccc32)CC1 (relative stereo) [Compound 2, Trans-4-[5-fluoro-3-(4-fluorophenyl)-2,3-dihydro-1H-inden-1-yl]-1-piperazine ethanol] | 0.021 | 0.15
O=C1OCCN1CCN1CCN([C@H]2C[C@H](c3ccc(F)cc3)c3cc(Cl)ccc32)CC1 (relative stereo) [Compound 14, Trans-3-[2-[4-[5-chloro-3-(4-fluorophenyl)-2,3-dihydro-1-H-inden-1-yl]piperazin-1-yl]ethyl]-2-oxazolidinone] | 0.023 | 0.14
